The test has as its system tear deficient rat model. The test can be described thus: Tear volume by Schirmer's test in capsaicin-induced tear deficient rat model. It counts as in vivo, Wister/ST rat. Conditions: Pharmacological Experiment 3; repeated administration test; compared with non-treated group (FIG. 5). As for the experimental part: To evaluate the utility of a combination of rebamipide and a tear-retaining agent or an artificial tear, rebamipide and sodium hyaluronate were administrated in combination to a tear deficient rat model, and the tear volume was measured and the corneal epithelial damage was evaluated. The tests were carried out in single administration and repeated administration.
Capsaicin (50 mg/kg) was administered to a 4-day-old Wister/ST rat, and 4 weeks later the rat was used as a tear deficient rat model.
For the single administration test, 5 μl of each drug solution for one eye was topically administrated to the rats of the “2% rebamipide-treated” group, “0.1% sodium hyaluronate-treated” group, and “2% rebamipide+0.1% sodium hyaluronate-treated” group. For the combination administration, 0.1% sodium hyaluronate was administrated 5 minutes after the administration of 2% rebamipide.
For the repeated administration test, 5 μl of each drug solution for one eye was topically administrated to the rats of the “2% rebamipide-treated” group (4 times/day), “0.1% sodium hyaluronate-treated” group (6 times/day), and “2% rebamipide (4 times/day)+0.1% sodium hyaluronate (6 times/day)-treated” group. […]
The tear volumes were measured as an index of a tear-retention capacity by Schirmer's test.

With `O=C(NC(Cc1cc(=O)[nH]c2ccccc12)C(=O)O)c1ccc(Cl)cc1` (stereo not shown) [rebamipide, 2-(4-chlorobenzoylamino)-3-[2(1H)-quinolin-4-yl]propionic acid], the “tear volume (tear-retention capacity)” value was “significantly higher”.

The values are drawn from patent US20140294991A1, “MEDICAMENT FOR TREATING ANTERIOR EYE DISEASE COMPRISING REBAMIPIDE AND A TEAR-RETAINING AGENT” (OTSUKA PHARMACEUTICAL CO., LTD., priority 2011, published 2014).
